# Experimental data from PMC7957578, “N-(1,3,4-Oxadiazol-2-yl)Benzamides as Antibacterial Agents against Neisseria gonorrhoeae” (International Journal of Molecular Sciences, 2021).
# Like-named read-outs stand apart in the source and are kept apart here.
# Key:
# [1] = system: N. gonorrhoeae strain 181; experiment: MIC by broth microdilution against N. gonorrhoeae strain 181; type: cell-based, Neisseria gonorrhoeae; conditions: Neisseria gonorrhoeae
# Method: (§1) Briefly, bacteria were grown overnight on chocolate agar II at 37° C in the presence of 5% CO2. Afterwards, a bacterial suspension equivalent to 1.0 McFarland standard was prepared and diluted in brucella broth supplemented with yeast extract, neopeptone, hematin, pyridoxal, and NAD. Test agents were added in the first row of the 96-well plates and serially diluted along the plates. Plates were then incubated at 37° C in the presence of 5% CO2 for 24 h. […] Plates were then incubated at 37 ° C in the presence of 5% CO2 for 24 h. The MBC was categorized as the lowest concentration that reduced bacterial growth by 99.9% [45, 46, 47].
# N. gonorrhoeae 200 = experiment: MIC/MBC against N. gonorrhoeae clinical isolate 200; type: cell-based; conditions: Neisseria gonorrhoeae
# Method: as §1
# N. gonorrhoeae 165 = experiment: MIC/MBC against N. gonorrhoeae clinical isolate 165; type: cell-based; conditions: Neisseria gonorrhoeae
# Method: as §1
# N. gonorrhoeae 194 = experiment: MIC/MBC against N. gonorrhoeae clinical isolate 194; type: cell-based; conditions: Neisseria gonorrhoeae
# Method: as §1
# N. gonorrhoeae 197 = experiment: MIC/MBC against N. gonorrhoeae clinical isolate 197; type: cell-based; conditions: Neisseria gonorrhoeae
# Method: as §1
# N. gonorrhoeae WHO L = experiment: MIC/MBC against N. gonorrhoeae WHO L reference strain; type: cell-based; conditions: Neisseria gonorrhoeae
# Method: as §1
# N. gonorrhoeae 166 = experiment: MIC/MBC against N. gonorrhoeae clinical isolate 166; type: cell-based; conditions: Neisseria gonorrhoeae
# Method: as §1
# [2] = system: E. coli BW25113 (wild-type strain); experiment: MIC/MBC (CLSI broth microdilution) against E. coli BW25113 wild type; type: cell-based, Escherichia coli; conditions: Escherichia coli
# Method: (§2) The minimum inhibitory concentrations (MICs) of the tested compounds and control drugs, linezolid, vancomycin, and gentamicin, were determined using the broth microdilution method according to the guidelines outlined by the Clinical and Laboratory Standards Institute (CLSI) against clinically relevant bacterial (Staphylococcus aureus, MRSA, Escherichia coli, Enterococcus faecalis and Enterococcus faecium strains. S. aureus, MRSA, E. coli, Enterococcus faecalis and Enterococcus faecium were grown aerobically overnight on tryptone soy agar (TSA) plates at 37° C. Afterwards, a bacterial solution equivalent to 0.5 McFarland standard was prepared and diluted in cation-adjusted Mueller–Hinton broth (CAMHB) (for S. aureus, MRSA, and E. coli) to achieve a bacterial concentration of about 5 × 10^5 CFU/mL. Enterococcus faecalis and Enterococcus faecium 0.5 McFarland standard solution was diluted in tryptone soy broth (TSB) to achieve a bacterial concentration of about 5 × 10^5 CFU/mL. Compounds and control drugs were added in the first row of 96-well plates and serially diluted with the corresponding media containing bacteria. Plates were then incubated as previously described. […] The minimum bactericidal concentration (MBC) was tested by spotting 4 µL from wells with no growth onto TSA plates. Plates were incubated at 37 ° C for at least 18 h before recording the MBC. The MBC was categorized as the lowest concentration that reduced bacterial growth by 99.9% [45, 46, 47].
# [3] = system: E. coli JW55031 (TolC Mutant); experiment: MIC/MBC (CLSI broth microdilution) against E. coli TolC mutant; type: cell-based; conditions: Escherichia coli
# Method: as §2
# VRE. faecalisATCC 51575 = experiment: MIC/MBC (CLSI broth microdilution) against VRE faecalis ATCC 51575; type: cell-based; conditions: Enterococcus
# Method: as §2
# E. faecalis ATCC 29212 = experiment: MIC/MBC (CLSI broth microdilution) against E. faecalis ATCC 29212; type: cell-based; conditions: Enterococcus faecalis, ATCC29212
# Method: as §2
# MRSA USA300 = experiment: MIC/MBC (CLSI broth microdilution) against MRSA USA300; type: cell-based, methicillin-resistant Staphylococcus aureus; conditions: Staphylococcus aureus
# Method: as §2
# S. aureus ATCC 25923 = experiment: MIC/MBC (CLSI broth microdilution) against S. aureus ATCC 25923; type: cell-based; conditions: Staphylococcus aureus, ATCC25923
# Method: as §2
# VRE. faecalis ATCC 51299 = experiment: MIC/MBC (CLSI broth microdilution) against VRE faecalis ATCC 51299; type: cell-based; conditions: Enterococcus
# Method: as §2
# VRE. faecium ATCC 700221 = experiment: MIC/MBC (CLSI broth microdilution) against VRE faecium ATCC 700221; type: cell-based; conditions: Enterococcus
# Method: as §2
# [4] = system: L. monocytogenes ATCC 19115; experiment: MIC/MBC (CLSI broth microdilution) against L. monocytogenes ATCC 19115; type: cell-based; conditions: Listeria monocytogenes, ATCC19115
# [5] = N. gonorrhoeae strain 181, read-out: MIC
# [6] = E. coli BW25113 wild-type strain, read-out: MBC
# [7] = E. coli BW25113 wild-type strain, read-out: MIC
smiles,measurement,setting,value
"CC[C@H]1OC(=O)[C@H](C)[C@@H](O[C@H]2C[C@@](C)(OC)[C@@H](O)[C@H](C)O2)[C@H](C)[C@@H](O[C@@H]2O[C@H](C)C[C@H](N(C)C)[C@H]2O)[C@](C)(O)C[C@@H](C)CN(C)[C@H](C)[C@@H](O)[C@]1(C)O [Azithromycin, azithromycin, reference compound]",MIC,[1]; 181,256 µg/mL
same,MBC,N. gonorrhoeae 200,0.5 µg/mL
same,MIC,N. gonorrhoeae 200,0.5 µg/mL
same,MBC,N. gonorrhoeae 165,4 µg/mL
same,MIC,N. gonorrhoeae 165,1 µg/mL
same,MBC,N. gonorrhoeae 194,0.5 µg/mL
same,MIC,N. gonorrhoeae 194,0.25 µg/mL
same,MBC,N. gonorrhoeae 197,2 µg/mL
same,MIC,N. gonorrhoeae 197,0.5 µg/mL
same,MBC,N. gonorrhoeae WHO L,1 µg/mL
same,MIC,N. gonorrhoeae WHO L,0.5 µg/mL
same,MBC,N. gonorrhoeae 166,1 µg/mL
same,MIC,N. gonorrhoeae 166,0.5 µg/mL
O=C(Nc1nnc(-c2cccs2)o1)c1ccc(S(=O)(=O)C(F)(F)F)cc1 [Compound 6],MIC,[1]; [5],0.5 µg/mL
O=C(Nc1nnc(-c2cccs2)o1)c1ccc(SC(F)(F)F)cc1 [Compound 12],MIC,[1]; [5],0.06 µg/mL
O=C(Nc1nnc(-c2cccs2)o1)c1ccc(S(F)(F)(F)(F)F)cc1 [Compound 13],MIC,[1]; [5],0.06 µg/mL
"CNC(C)C1CCC(N)C(OC2C(N)CC(N)C(OC3OCC(C)(O)C(NC)C3O)C2O)O1 (stereo not drawn) [Gentamicin, gentamicin, reference compound]",MBC,[2]; [6],0.25 µg/mL
same,MIC,[2]; [7],0.25 µg/mL
same,MBC,[3],0.25 µg/mL
same,MIC,[3],0.25 µg/mL
"CC(=O)NC[C@H]1CN(c2ccc(N3CCOCC3)c(F)c2)C(=O)O1 [Linezolid, linezolid, reference compound]",MBC,"VRE. faecalisATCC 51575; VRE faecalis ATCC 51575, read-out: MBC",64 µg/mL
same,MIC,"VRE. faecalisATCC 51575; VRE faecalis ATCC 51575, read-out: MIC",2 µg/mL
same,MBC,[2]; [6],> 64 µg/mL
same,MIC,[2]; [7],> 64 µg/mL
same,MBC,"E. faecalis ATCC 29212; E. faecalis ATCC 29212, read-out: MBC",64 µg/mL
same,MIC,"E. faecalis ATCC 29212; E. faecalis ATCC 29212, read-out: MIC",2 µg/mL
same,MBC,"MRSA USA300; MRSA USA300, read-out: MBC",16 µg/mL
same,MIC,"MRSA USA300; MRSA USA300, read-out: MIC",1 µg/mL
same,MBC,"S. aureus ATCC 25923; S. aureus ATCC 25923, read-out: MBC",64 µg/mL
same,MIC,"S. aureus ATCC 25923; S. aureus ATCC 25923, read-out: MIC",2 µg/mL
same,MBC,[3],> 64 µg/mL
same,MIC,[3],8 µg/mL
same,MBC,"VRE. faecalis ATCC 51299; VRE faecalis ATCC 51299, read-out: MBC",32 µg/mL
same,MIC,"VRE. faecalis ATCC 51299; VRE faecalis ATCC 51299, read-out: MIC",1 µg/mL
same,MBC,"VRE. faecium ATCC 700221; VRE faecium ATCC 700221, read-out: MBC",64 µg/mL
same,MIC,"VRE. faecium ATCC 700221; VRE faecium ATCC 700221, read-out: MIC",2 µg/mL
same,MBC,"[4]; L. monocytogenes ATCC 19115, read-out: MBC",64 µg/mL
same,MIC,"[4]; L. monocytogenes ATCC 19115, read-out: MIC",2 µg/mL
"CN(C)[C@@H]1C(O)=C(C(N)=O)C(=O)[C@@]2(O)C(O)=C3C(=O)c4c(O)cccc4[C@@](C)(O)[C@H]3C[C@@H]12 [Tetracycline, tetracycline, reference compound]",MIC,[1]; [5],2 µg/mL
same,MBC,N. gonorrhoeae 200,8 µg/mL
same,MIC,N. gonorrhoeae 200,2 µg/mL
same,MBC,N. gonorrhoeae 165,8 µg/mL
same,MIC,N. gonorrhoeae 165,4 µg/mL
same,MBC,N. gonorrhoeae 194,4 µg/mL
same,MIC,N. gonorrhoeae 194,1 µg/mL
same,MBC,N. gonorrhoeae 197,4 µg/mL
same,MIC,N. gonorrhoeae 197,2 µg/mL
same,MBC,N. gonorrhoeae WHO L,2 µg/mL
same,MIC,N. gonorrhoeae WHO L,0.5 µg/mL
same,MBC,N. gonorrhoeae 166,8 µg/mL
same,MIC,N. gonorrhoeae 166,2 µg/mL
"CN[C@H](CC(C)C)C(=O)N[C@H]1C(=O)N[C@@H](CC(N)=O)C(=O)N[C@H]2C(=O)N[C@H]3C(=O)N[C@H](C(=O)N[C@H](C(=O)O)c4cc(O)cc(O)c4-c4cc3ccc4O)[C@H](O)c3ccc(c(Cl)c3)Oc3cc2cc(c3O[C@@H]2O[C@H](CO)[C@@H](O)[C@H](O)[C@H]2O[C@H]2C[C@](C)(N)[C@H](O)[C@H](C)O2)Oc2ccc(cc2Cl)[C@H]1O [Vancomycin, vancomycin, reference compound]",MBC,VRE. faecalisATCC 51575,> 64 µg/mL
same,MIC,VRE. faecalisATCC 51575,> 64 µg/mL
same,MBC,[2]; BW25113,> 64 µg/mL
same,MIC,[2]; BW25113,> 64 µg/mL
same,MBC,E. faecalis ATCC 29212,1 µg/mL
same,MIC,E. faecalis ATCC 29212,1 µg/mL
same,MBC,MRSA USA300,2 µg/mL
same,MIC,MRSA USA300,1 µg/mL
same,MBC,S. aureus ATCC 25923,1 µg/mL
same,MIC,S. aureus ATCC 25923,1 µg/mL
same,MBC,[3],> 64 µg/mL
same,MIC,[3],> 64 µg/mL
same,MBC,VRE. faecalis ATCC 51299,> 64 µg/mL
same,MIC,VRE. faecalis ATCC 51299,> 64 µg/mL
same,MBC,VRE. faecium ATCC 700221,32 µg/mL
same,MIC,VRE. faecium ATCC 700221,32 µg/mL
same,MBC,[4],1 µg/mL
same,MIC,[4],1 µg/mL
